What all share (test): EMSA
Format in all cases: binding
Common to all, as to conditions: labelled compound (32P, ~1 uM), 20 uM protein; pH 7.5, 25 C
For orientation: Mobility shift assays separate free from complexed probe on a gel.

One assay has as its target T1, NdSTING (Niabella drilacis, UniProt A0A1G6LGU2).
T1 sequence (A0A1G6LGU2 1-312): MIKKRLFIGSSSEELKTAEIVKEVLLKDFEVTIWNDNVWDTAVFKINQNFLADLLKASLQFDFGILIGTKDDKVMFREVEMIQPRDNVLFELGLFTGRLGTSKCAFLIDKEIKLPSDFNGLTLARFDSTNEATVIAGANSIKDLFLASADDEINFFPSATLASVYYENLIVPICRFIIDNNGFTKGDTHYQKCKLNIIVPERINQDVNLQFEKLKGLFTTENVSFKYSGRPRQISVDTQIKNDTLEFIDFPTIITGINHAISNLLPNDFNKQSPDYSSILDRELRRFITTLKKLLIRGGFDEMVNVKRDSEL

The target in a further assay is T2, FdSTING (Flavobacterium daejeonense, UniProt P0DUD9).
T2 sequence (P0DUD9 1-311): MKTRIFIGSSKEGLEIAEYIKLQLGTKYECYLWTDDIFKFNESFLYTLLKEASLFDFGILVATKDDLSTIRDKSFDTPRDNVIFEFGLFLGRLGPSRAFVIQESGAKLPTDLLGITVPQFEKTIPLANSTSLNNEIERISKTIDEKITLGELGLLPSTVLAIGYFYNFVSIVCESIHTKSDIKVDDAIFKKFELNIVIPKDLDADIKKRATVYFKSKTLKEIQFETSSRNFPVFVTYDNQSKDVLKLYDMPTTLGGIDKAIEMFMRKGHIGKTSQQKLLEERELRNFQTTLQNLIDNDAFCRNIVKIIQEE

Another assay deals with T3, LbSTING (Lachnospiraceae bacterium RUG226, UniProt P0DUE0).
T3 sequence (P0DUE0 1-316): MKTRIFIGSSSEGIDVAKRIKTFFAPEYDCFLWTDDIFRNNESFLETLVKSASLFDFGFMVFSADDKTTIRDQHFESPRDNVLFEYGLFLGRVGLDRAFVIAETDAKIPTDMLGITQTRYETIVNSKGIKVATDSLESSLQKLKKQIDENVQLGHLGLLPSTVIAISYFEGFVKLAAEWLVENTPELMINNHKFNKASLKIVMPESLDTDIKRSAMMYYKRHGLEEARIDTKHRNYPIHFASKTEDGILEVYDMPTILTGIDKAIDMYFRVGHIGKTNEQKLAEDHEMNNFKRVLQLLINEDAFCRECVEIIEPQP

The target of a further assay is AaSTING (Aggregatibacter actinomycetemcomitans, UniProt A0A5D0EMF2).
Sequence of AaSTING (A0A5D0EMF2 whole entry): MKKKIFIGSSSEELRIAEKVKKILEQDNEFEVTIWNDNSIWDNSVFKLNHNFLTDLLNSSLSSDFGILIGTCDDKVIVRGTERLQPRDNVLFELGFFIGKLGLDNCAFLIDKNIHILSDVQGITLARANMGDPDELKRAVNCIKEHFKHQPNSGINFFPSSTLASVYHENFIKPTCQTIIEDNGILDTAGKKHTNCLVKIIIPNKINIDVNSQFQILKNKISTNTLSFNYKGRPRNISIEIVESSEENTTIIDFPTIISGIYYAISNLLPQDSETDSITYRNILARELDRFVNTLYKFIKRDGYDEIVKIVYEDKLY

Consider `Nc1nc2c(ncn2[C@@H]2O[C@@H]3COP(=O)(O)O[C@H]4[C@@H](O)[C@H](n5cnc6c(=O)[nH]c(N)nc65)O[C@@H]4COP(=O)(O)O[C@H]3[C@H]2O)c(=O)[nH]1` [c-di-GMP], for which the EMSA result at NdSTING is “diverse panel of bacterial STING homologues demonstrates conservation of c-di-GMP binding”; on FdSTING, “diverse panel of bacterial STING homologues demonstrates conservation of c-di-GMP binding”; on LbSTING, “Bacterial STING receptors specifically recognize c-di-GMP”; on AaSTING it was “Bacterial STING receptors specifically recognize c-di-GMP”.
